Experimental data as given in patent US20220251071A1, “METHOD TO MAKE SMALL-MOLECULE MURINE DOUBLE MINUTE 2 PROTEIN (MDM2)-DEGRADING COMPOUNDS, COMPOUNDS FORMED THEREBY, AND PHARMACEUTICAL COMPOSITIONS CONTAINING THEM” (Wisconsin Alumni Research Foundation, priority 2019, published 2022).

Legend:
[1] = tested on: p53 transcriptional activity (MDM2, TP53, CDKN1A mRNA); assay: qRT-PCR of mRNA levels of p53 target genes; format: cell-based, human; conditions: RS4;11 cells, 6 h; for transcription of p53 targeted genes MDM2 and CDKN1A (p21): (4S,5R)-1 at 1 PM as printed, 32 at 100 nM
Description: Total RNA was extracted using GeneJET RNA Purification Kit (Thermo Scientific) and titrated by SYNERGY H1 Hybrid Multi-Mode Reader (BioTek) at 260 nm. 1 μg of total RNA was subjected to reverse transcription using High-Capacity cDNA Reverse Transcription Kit (appliedbiosystems). Quantitative RT-PCR was performed using PowerUp™ SYBR™ Green Master Mix (appliedbiosystems) and the amplification detected in a QuantStudio 7 Flex Real-Time PCR System (ThermoFisher Applied Biosystems).

p53 = conditions: xenograft tumor tissues; cited from earlier work
RS4;11 cells [2] = assay: MTT cell viability (anti-proliferation) assay; format: cell-based, human; conditions: for IC50: Homo sapiens, RS4-11, MTT assay, 48 h incubation, read-out: IC50, inhibition of growth/proliferation of RS4;11 cells; for anti-proliferation effect, rank in screen / anti-proliferation potency relative to parent MDM2 inhibitor: RS4;11 cells; for anti-proliferation effect, rank in screen: compounds tested at 100 nM; for anti-proliferation potency relative to parent MDM2 inhibitor: 20 vs 1, 32 vs (4S, 5R)-1
Description: The “MTT assay” is a colorimetric assay for assessing cellular metabolic activity. NAD(P)H-dependent cellular oxidoreductase enzymes reflect the number of viable cells present. These enzymes are capable of reducing the tetrazolium dye 3-(4,5-dimethylthiazol-2-yl)-2,5-diphenyltetrazolium bromide (“MTT”) to its insoluble formazan, which has a purple color and whose concentration is then measured spectrophotometrically. The MTT assay is conventional and well known. See, for example, Stockert et al. (2018) “Tetrazolium salts and formazan products in Cell Biology: Viability assessment, fluorescence imaging, and labeling perspectives,” Acta Histochemica 120: 159-167. As used herein, “MTT assay” refers broadly to the MTT assay itself and to the well-known variations of it that use structurally related tetrazolium salts (e.g., XTT, MTS, etc.).
(§1) The human acute leukemia RS4;11 cell line was purchased from American Type Culture Collection (ATCC Accession No. CRL-1873), and cultured in RPMI-1640 media (Corning Incorporated (USA), One Riverfront Plaza, Corning, N.Y. 14831) supplemented with 10% fetal bovine serum (FBS), 1% sodium pyruvate, 1% penicillin/streptomycin, and 10 mM HEPES at 37° C. under a humidified 5% CO2 atmosphere. The experiments were performed by using cells with 8-20 passages after purchasing.
Cells were seeded in a 96-well cell culture plate at a density of 2×10^4 cells with 90 μL cell culture media overnight. The cells were then treated with the indicated dose of compounds, respectively, and incubated at 37° C. under a humidified 5% CO2 atmosphere for 48 h. After the incubation, the cells were treated with 10 μL of MTT solution (5 mg/mL) and incubated with another 4 h, followed by the addition of 100 μL of solubilizing solution. The plate was placed on the shaker for overnight at room temperature until the formazan were entirely dissolved. The plate was scanned at 570 nm and 690 nm. The absorbance was normalized to the DMSO-treated cells, and the IC50 was calculated by non-linear regression analysis using GraphPad Prism 6 software.

MDM2 = target: T1, MDM2 (Homo sapiens, UniProt Q00987); assay: Western blot of MDM2 degradation and downstream proteins; format: cell-based; conditions: for MDM2 degradation at 100 nM, 20 compared with 32: identical conditions; for MDM2 degradation (Western blot): RS4;11 leukemia cells, data not shown
T1 construct: endogenous in cells; host or cells: RS4;11 (ATCC CRL-1873)
Description: as §1
Cells were treated with the indicated concentrations of compounds under the indicated time. Cells were collected and lysed with RIPA buffer (Corning) after being washed with cold PBS twice. The supernatant was collected after centrifugation at 16,000×g at 4° C. for 15 min. The protein concentration was measured with BCA (bicinchoninic acid) method. (Smith, P. K., et al. (1985) “Measurement of protein using bicinchoninic acid,” Anal. Biochem. 150(1):76-85.) The protein expressed in the whole cell lysates was identified by Western Blot. A quantity of 40 μg protein per sample was loaded and then separated by SDS-PAGE. Proteins in the gel was transferred to polyvinylidene fluoride (PVDF) membranes, then blocked with 5% non-fat milk, and probed with the primary antibodies at 4° C. overnight. The primary antibodies are as following: MDM2 (D1V2Z) (1:1000), p53 (DO-7) (1:1000), PARP (46D11) (1:1000), Caspase-3 (1:1000), and p21 Waf1/Cip 1(12D1) (1:1000), all of which were purchased from Cell Signaling Technology, Inc., 3 Trask Lane, Danvers, Mass. 01923, along with a-Tubulin (1:1000) and β-Actin (1:1000), which were purchased from R&D Systems, Inc., 614 McKinley Place NE, Minneapolis, Minn. 55413. The membrane was washed with TBS-T 3 times, and incubated with HRP-linked secondary antibodies for 1 h at room temperature, followed by washing with TBS-T. The membrane was incubated with ECL (Bio-rad) for 5 min. The protein band was visualized by using a Bio-Rad Chemi-Doc MP imaging system. The intensity of the band was measured by Image J software.

RS4;11 cells [3] = assay: Flow cytometry apoptosis, Annexin V / PI staining; format: cell-based, human; conditions: 24 h, 100 nM or 1 μM
Description: Cells were seeded in a 6 cm circular cell culture dish at a density of 5×10^6 cells. After being settled overnight, the cells were treated with the indicated concentrations of compounds for 24 h. The collected cells were double stained with FITC Annexin V and PI according to the manufacturer's protocols. The apoptosis was analyzed using a FITC Annexin V apoptosis detection kit (556547, BD Biosciences, 2350 Qume Drive, San Jose, Calif. 95131).

T1 sequence (Q00987 whole entry): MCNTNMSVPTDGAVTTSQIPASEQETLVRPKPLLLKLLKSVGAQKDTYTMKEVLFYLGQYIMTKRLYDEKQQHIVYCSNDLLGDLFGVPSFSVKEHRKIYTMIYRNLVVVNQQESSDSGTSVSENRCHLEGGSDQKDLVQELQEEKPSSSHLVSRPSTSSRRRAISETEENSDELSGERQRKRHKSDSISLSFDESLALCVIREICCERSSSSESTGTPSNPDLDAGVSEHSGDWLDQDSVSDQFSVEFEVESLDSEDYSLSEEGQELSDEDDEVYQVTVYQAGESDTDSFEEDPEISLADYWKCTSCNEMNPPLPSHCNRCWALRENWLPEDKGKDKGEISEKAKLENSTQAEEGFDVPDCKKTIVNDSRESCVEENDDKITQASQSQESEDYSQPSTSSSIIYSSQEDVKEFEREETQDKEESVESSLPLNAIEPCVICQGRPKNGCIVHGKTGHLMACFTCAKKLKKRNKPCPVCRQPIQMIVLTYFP

In the case of CCOc1cc(C(C)(C)C)ccc1C1=N[C@@H](c2ccc(Cl)cc2)[C@@H](c2ccc(Cl)cc2)N1C(=O)N1CCNCC1 [(4S, 5R)-1, ((4S,5R)-2-(4-(tert-butyl)-2-ethoxyphenyl)-4,5-bis(4-chlorophenyl)-4,5-dihydro-1H-imidazol-1-yl)(piperazin-1-yl)methanone], the “effect on TP53 mRNA” value [1] is reported as “Neither MDM2 ligand (4S, 5R)-1 nor degrader 32 has any effect on TP53” and the “transcription of p53 targeted genes MDM2 and CDKN1A (p21)” value [1] is reported as “upregulated”.
For CC(C)(C)C[C@@H]1N[C@@H](C(=O)N[C@H]2CC[C@H](O)CC2)[C@H](c2cccc(Cl)c2F)[C@]12C(=O)Nc1cc(Cl)ccc12 [SAR405838], the “duration of p53 accumulation after a single dose” value (p53) is listed as “only induced a few hours of p53 accumulation”.
In the case of CCOc1cc(C(C)(C)C)ccc1C1=NC(c2ccc(Cl)cc2)C(c2ccc(Cl)cc2)N1C(=O)N1CCN(CC#Cc2cccc3c2CN(C2CCC(=O)NC2=O)C3=O)CC1 (racemic) [Compound 20, 3-(4-(3-(4-(2-(4-(tert-butyl)-2-ethoxyphenyl)-4,5-bis(4-chlorophenyl)-4,5-dihydro-1H-imidazole-1-carbonyl)piperazin-1-yl)prop-1-yn-1-yl)-1-oxoisoindolin-2-yl)piperidine-2,6-dione], the IC50 (RS4;11 cells [2]) is reported as 7.2 nM, the “anti-proliferation effect, rank in screen” value (RS4;11 cells [2]) is reported as “most potent inhibitor of RS4;11” and the “anti-proliferation potency relative to parent MDM2 inhibitor” value (RS4;11 cells [2]) is reported as ~1,000 fold. The “MDM2 degradation at 100 nM, 20 compared with 32” value (MDM2; RS4;11 cells) was “significant degradation of MDM2 was observed” and the “MDM2 degradation (Western blot)” value (MDM2) was “degrade significant amounts of MDM2”.
For CCOc1cc(C(C)(C)C)ccc1C1=N[C@@H](c2ccc(Cl)cc2)[C@@H](c2ccc(Cl)cc2)N1C(=O)N1CCN(CC#Cc2cccc3c2CN(C2CCC(=O)NC2=O)C3=O)CC1 (stereo partly drawn) [Compound 32, 3-(4-(3-(4-((4S,5R)-2-(4-(tert-butyl)-2-ethoxyphenyl)-4,5-bis(4-chlorophenyl)-4,5-dihydro-1H-imidazole-1-carbonyl)piperazin-1-yl)prop-1-yn-1-yl)-1-oxoisoindolin-2-yl)piperidine-2,6-dione], the IC50 (RS4;11 cells [2]) was 3.2 nM, the “anti-proliferation effect, rank in screen” value (RS4;11 cells [2]) was “most potent compound as compared to 33 and 34” and the “anti-proliferation potency relative to parent MDM2 inhibitor” value (RS4;11 cells [2]) was ~1,000 fold. The “MDM2 degradation on co-treatment with MDM2 ligand (4S, 5R)-1 or CRBN ligand lenalidomide” value (MDM2; 32 at 100 nM, competitor 5 μM) was “significantly reduced”, the “reversibility of MDM2 downregulation after washout” value (MDM2; 12 h treatment, then fresh medium) was “reversible” and the “MDM2 degradation on co-incubation with proteasome inhibitor MG132” value (MDM2; MG132 5 PM as printed) was “the degradation of MDM2 ceased”. The “MDM2 and p53 protein levels” value (MDM2; RS4;11 cells, 100 nM or 1 μM) was “MDM2 depleted and p53 was stabilized and upregulated”, the “cleavage of PARP and Caspase-3” value (MDM2; RS4;11 cells, 100 nM or 1 μM) was “cleaved PARP and Caspase-3 were observed” and the p21 protein level (MDM2; RS4;11 cells, 100 nM or 1 μM) was “increased level of p21”. The “MDM2 degradation at 100 nM, 20 compared with 32” value (MDM2; RS4;11 cells) was “superior”, the Dmax at 0.1 µM (MDM2; RS4;11 cells, 24 h, observed at 100 nM, read-out: maximal level of MDM2 degradation (Dmax)) was 90% and the DC50 (MDM2; RS4;11 cells, 24 h incubation, read-out: concentration at which 50% MDM2 degradation was detected (DC50)) was 23 nM. The “time after washout without return of MDM2 to pre-treatment levels” value (MDM2; RS4;11 cells, after removal of degrader) was over 48 h, the “time at which MDM2 degradation was first observed” value (MDM2; RS4;11 cells, time course) was 1 h and the “time at which cleaved PARP was observed” value (MDM2; RS4;11 cells, time course) was 6 h. The “MDM2 degradation (Western blot)” value (MDM2) was “degrade significant amounts of MDM2”, the “effect on TP53 mRNA” value [1] was “Neither MDM2 ligand (4S, 5R)-1 nor degrader 32 has any effect on TP53” and the “transcription of p53 targeted genes MDM2 and CDKN1A (p21)” value [1] was “more significant transcriptional upregulation”. The “apoptosis induction, Annexin V-positive cells” value (RS4;11 cells [3]) was “A large number of cells were identified in Annexin V-positive quadrants”.
With CCOc1cc(C(C)(C)C)ccc1C1=NC(c2ccc(Cl)cc2)C(c2ccc(Cl)cc2)N1C(=O)N1CCN(C(=O)CCC#Cc2cccc3c2CN(C2CCC(=O)NC2=O)C3=O)CC1 (centres unmarked) [Compound 7, 3-(4-(5-(4-(2-(4-(tert-butyl)-2-ethoxyphenyl)-4,5-bis(4-chlorophenyl)-4,5-dihydro-1H-imidazole-1-carbonyl)piperazin-1-yl)-5-oxopent-1-yn-1-yl)-1-oxoisoindolin-2-yl)piperidine-2,6-dione] the “MDM2 degradation (Western blot)” value (MDM2) was “degrade significant amounts of MDM2”.
For C=C1NC(=O)CCC1N1Cc2c(C#CCCCC(=O)NCC(=O)N3CCN(C(=O)N4C(c5ccc(C(C)(C)C)cc5OCC)=NC(c5ccc(Cl)cc5)C4c4ccc(Cl)cc4)CC3)cccc2C1=O (centres unmarked) [Compound 15, N-(2-(4-(2-(4-(tert-butyl)-2-ethoxyphenyl)-4,5-bis(4-chlorophenyl)-4,5-dihydro-1H-imidazole-1-carbonyl)piperazin-1-yl)-2-oxoethyl)-6-(2-(2-methylene-6-oxopiperidin-3-yl)-1-oxoisoindolin-4-yl)hex-5-ynamide], the “MDM2 degradation (Western blot)” value (MDM2) was “degrade significant amounts of MDM2”.
